These compounds were tested against DYRK1A (Homo sapiens, UniProt Q13627) (assay: Affinity testing of compounds with DYRK1A (KD)). Conditions: DYRK1A affinity key classes.
Format: binding

Kd	Structure (SMILES)
101 to 500 nM	OC1CCCN(Cc2ccc(-c3cnc4ccc(-c5ccncc5)nn34)cc2)C1 (stereo not drawn) [Compound 101, 1-(4-(6-(pyridin-4-yl)imidazo[1,2-b]pyridazin-3-yl)benzyl)piperidin-3-ol]
0.5 to 100 nM	Fc1cc(-c2ccncc2)cc2c1ncn2-c1ccc2c(c1)OCO2 [Compound 3, 1-(benzo[d][1,3]dioxol-5-yl)-4-fluoro-6-(pyridin-4-yl)-1H-benzo[d]imidazole]
101 to 500 nM	Cc1cc(-c2ccc3ncc(-c4ccc(CN5CCC(C)(C)CC5)cc4)n3n2)ccn1 [Compound 93, 3-(4-((4,4-dimethylpiperidin-1-yl)methyl)phenyl)-6-(2-methylpyridin-4-yl)imidazo[1,2-b]pyridazine]
501 to 10000 nM	Fc1cnccc1-c1ccc2ncc(-c3ccc(CN4CCCCC4)cc3)n2n1 [Compound 109, 6-(3-fluoropyridin-4-yl)-3-(4-(piperidin-1-ylmethyl)phenyl)imidazo[1,2-b]pyridazine]
0.5 to 100 nM	CN1CCN(c2ccc(-c3cnc4ccc(-c5ccncc5)nn34)cn2)CC1 [Compound 87, 3-(6-(4-methylpiperazin-1-yl)pyridin-3-yl)-6-(pyridin-4-yl)imidazo[1,2-b]pyridazine]
0.5 to 100 nM	Cc1nc2ccc(-c3ccnc(N)c3)nc2n1-c1cccc(N2CCOCC2)c1 [Compound 157, 4-(2-methyl-3-(3-morpholinophenyl)-3H-imidazo[4,5-b]pyridin-5-yl)pyridin-2-amine]
0.5 to 100 nM	Cc1nc2ccc(-c3ccncc3)nc2n1-c1ccc2c(c1)OCC(=O)N2 [Compound 37, 7-(2-methyl-5-(pyridin-4-yl)-3H-imidazo[4,5-b]pyridin-3-yl)-2H-benzo[b][1,4]oxazin-3(4H)-one]
0.5 to 100 nM	c1n[nH]cc1-c1ccc2ncc(-c3ccc4c(c3)OCO4)n2n1 [Compound 27, 3-(benzo[d][1,3]dioxol-5-yl)-6-(1H-pyrazol-4-yl)imidazo[1,2-b]pyridazine]
101 to 500 nM	FC1(F)CCN(Cc2ccc(-c3cnc4ccc(-c5ccncc5)nn34)cc2)C1 [Compound 98, 3-(4-((3,3-difluoropyrrolidin-1-yl)methyl)phenyl)-6-(pyridin-4-yl)imidazo[1,2-b]pyridazine]
101 to 500 nM	Cc1nc2ccc(-c3ccncc3)nc2n1-c1ccc(C(=O)N2CCN(C3COC3)CC2)cc1 [Compound 57, (4-(2-methyl-5-(pyridin-4-yl)-3H-imidazo[4,5-b]pyridin-3-yl)phenyl)(4-(oxetan-3-yl)piperazin-1-yl)methanone]
501 to 10000 nM	Cc1cc(-c2ccc3ncc(N4CCN(C5COC5)CC4)n3n2)ccn1 [Compound 84, 6-(2-methylpyridin-4-yl)-3-(4-(oxetan-3-yl)piperazin-1-yl)imidazo[1,2-b]pyridazine]
501 to 10000 nM	Cc1nc2ccc(-c3ccncc3)nc2n1-c1ccc(CN2CCOCC2)cn1 [Compound 64, 4-((6-(2-methyl-5-(pyridin-4-yl)-3H-imidazo[4,5-b]pyridin-3-yl)pyridin-3-yl)methyl)morpholine]
101 to 500 nM	c1cc(-c2ccc3ncc(-c4ccc(N5CCCCC5)nc4)n3n2)ccn1 [Compound 74, 3-(6-(piperidin-1-yl)pyridin-3-yl)-6-(pyridin-4-yl)imidazo[1,2-b]pyridazine]
101 to 500 nM	Cc1nc2ncc(-c3ccnc(N)c3)nc2n1-c1ccc2[nH]cnc2c1 [Compound 130, 4-(1-(1H-benzo[d]imidazol-5-yl)-2-methyl-1H-imidazo[4,5-b]pyrazin-6-yl)pyridin-2-amine]
0.5 to 100 nM	Cc1nc2ccc(-c3ccncc3)nc2n1-c1cnc2[nH]ccc2c1 [Compound 137, 2-methyl-5-(pyridin-4-yl)-3-(1H-pyrrolo[2,3-b]pyridin-5-yl)-3H-imidazo[4,5-b]pyridine]
0.5 to 100 nM	Cc1nc2ccc(-c3ccnc(N)c3)nc2n1-c1ccc(F)c(N2CCOCC2)c1 [Compound 173, 4-(3-(4-fluoro-3-morpholinophenyl)-2-methyl-3H-imidazo[4,5-b]pyridin-5-yl)pyridin-2-amine]
0.5 to 100 nM	O=C(O)c1ccc(-n2cnc3ccc(-c4ccncc4)nc32)cc1 [Compound 10, 4-(5-(pyridin-4-yl)-3H-imidazo[4,5-b]pyridin-3-yl)benzoic acid]
101 to 500 nM	Cc1nc2ccc(-c3ccncc3)nc2n1-c1ccc(CN2[C@@H]3COC[C@H]2CC(=O)C3)cc1 [Compound 123, (1R,5S)-9-(4-(2-methyl-5-(pyridin-4-yl)-3H-imidazo[4,5-b]pyridin-3-yl)benzyl)-3-oxa-9-azabicyclo[3.3.1]nonan-7-one]
0.5 to 100 nM	Cc1nc2ccc(-c3ccnc(N)c3)nc2n1-c1ccc(=O)n(C)c1 [Compound 48, 5-(5-(2-aminopyridin-4-yl)-2-methyl-3H-imidazo[4,5-b]pyridin-3-yl)-1-methylpyridin-2(1H)-one]
0.5 to 100 nM	Cc1nc2ccc(-c3ccnc(N)c3)nc2n1-c1ccc2c(c1)CCN2C1CCOCC1 [Compound 174, 4-(2-methyl-3-(1-(tetrahydro-2H-pyran-4-yl)indolin-5-yl)-3H-imidazo[4,5-b]pyridin-5-yl)pyridin-2-amine]
0.5 to 100 nM	c1cc(-c2cn3c(-c4ccc5c(c4)OCO5)cnc3cn2)ccn1 [Compound 67, 3-(benzo[d][1,3]dioxol-5-yl)-6-(pyridin-4-yl)imidazo[1,2-a]pyrazine]

Kd	Structure (SMILES)
101 to 500 nM	Cc1cc(-c2ccc3nc(C)n(-c4ccc5[nH]cnc5c4)c3n2)cc(C)n1 [Compound 51, 3-(1H-benzo[d]imidazol-5-yl)-5-(2,6-dimethylpyridin-4-yl)-2-methyl-3H-imidazo[4,5-b]pyridine]
101 to 500 nM	NC(=O)c1ccnc(-n2cnc3ccc(-c4ccncc4)c(F)c32)c1 [Compound 12, 2-(7-fluoro-6-(pyridin-4-yl)-1H-benzo[d]imidazol-1-yl)isonicotinamide]
501 to 10000 nM	O=C(O)c1ccnc(-n2cnc3ccc(-c4ccncc4)c(F)c32)c1 [Compound 13, 2-(7-fluoro-6-(pyridin-4-yl)-1H-benzo[d]imidazol-1-yl)isonicotinic acid]
0.5 to 100 nM	Cc1c2cc(-n3c(C)nc4ccc(-c5ccncc5)nc43)ccc2nn1C [Compound 139, 3-(2,3-dimethyl-2H-indazol-5-yl)-2-methyl-5-(pyridin-4-yl)-3H-imidazo[4,5-b]pyridine]
0.5 to 100 nM	Cc1nc2ccc(-c3ccnc(N)c3)nc2n1-c1ccnc(N2CCOCC2)c1 [Compound 164, 4-(2-methyl-3-(2-morpholinopyridin-4-yl)-3H-imidazo[4,5-b]pyridin-5-yl)pyridin-2-amine]
0.5 to 100 nM	Cc1nc2ccc(-c3ccnc(N)c3)nc2n1-c1cc(F)c(N2CCOCC2)c(F)c1 [Compound 172, 4-(3-(3,5-difluoro-4-morpholinophenyl)-2-methyl-3H-imidazo[4,5-b]pyridin-5-yl)pyridin-2-amine]
501 to 10000 nM	Cc1nc2ccc(-c3cc[nH]c(=O)c3)nc2n1-c1ccc(N2CCOCC2)cc1 [Compound 54, 4-(2-methyl-3-(4-morpholinophenyl)-3H-imidazo[4,5-b]pyridin-5-yl)pyridin-2(1H)-one]
0.5 to 100 nM	Cc1nc2cc(-c3ccnc(N)c3)cnc2[nH]1 [Compound 71, 4-(2-methyl-3H-imidazo[4,5-b]pyridin-6-yl)pyridin-2-amine]
501 to 10000 nM	COc1cccc(-c2cnc3ccc(-c4ccncc4)nn23)c1 [Compound 75, 3-(3-methoxyphenyl)-6-(pyridin-4-yl)imidazo[1,2-b]pyridazine]
0.5 to 100 nM	CC(=O)N1CCN(Cc2ccc(-n3c(C)nc4ccc(-c5ccncc5)nc43)cc2)CC1 [Compound 116, 1-(4-(4-(2-methyl-5-(pyridin-4-yl)-3H-imidazo[4,5-b]pyridin-3-yl)benzyl)piperazin-1-yl)ethan-1-one]
0.5 to 100 nM	Cc1nc2ccc(-c3ccnc(N)c3)nc2n1-c1ccc(N2C[C@@H](C)O[C@@H](C)C2)c(F)c1 [Compound 181, 4-(3-(4-((2S,6R)-2,6-dimethylmorpholino)-3-fluorophenyl)-2-methyl-3H-imidazo[4,5-b]pyridin-5-yl)pyridin-2-amine]
101 to 500 nM	Cc1cc(-c2ccc3ncc(-c4ccc(CN5CCOCC5)cc4)n3n2)ccn1 [Compound 90, 4-(4-(6-(2-methylpyridin-4-yl)imidazo[1,2-b]pyridazin-3-yl)benzyl)morpholine]
101 to 500 nM	O=C(O)c1ccc(-n2cnc3c(F)cc(-c4ccncc4)cc32)cc1 [Compound 17, 4-(4-fluoro-6-(pyridin-4-yl)-1H-benzo[d]imidazol-1-yl)benzoic acid]
501 to 10000 nM	Cc1nc2ncc(-c3ccncc3)nc2n1-c1ccc(N2CCOCC2)cc1 [Compound 129, 4-(4-(2-methyl-6-(pyridin-4-yl)-1H-imidazo[4,5-b]pyrazin-1-yl)phenyl)morpholine]
101 to 500 nM	COc1cnc(-c2ccnc(N)c2)nc1 [Compound 69, 4-(5-methoxypyrimidin-2-yl)pyridin-2-amine]
101 to 500 nM	c1cc(-c2ccc3ncc(-c4ccc(CN5CCOCC5)cc4)n3n2)ccn1 [Compound 96, 4-(4-(6-(pyridin-4-yl)imidazo[1,2-b]pyridazin-3-yl)benzyl)morpholine]
101 to 500 nM	Cc1nc2cc(-n3c(C)nc4ccc(-c5ccncc5)nc43)ccc2o1 [Compound 35, 2-methyl-5-(2-methyl-5-(pyridin-4-yl)-3H-imidazo[4,5-b]pyridin-3-yl)benzo[d]oxazole]
0.5 to 100 nM	COC(=O)c1ccc(-n2cnc3c(F)cc(-c4ccncc4)cc32)cc1 [Compound 16, methyl 4-(4-fluoro-6-(pyridin-4-yl)-1H-benzo[d]imidazol-1-yl)benzoate]
101 to 500 nM	Cc1nc2ccc(-c3ccncc3)nc2n1-c1ccc(=O)n(C)c1 [Compound 41, 1-methyl-5-(2-methyl-5-(pyridin-4-yl)-3H-imidazo[4,5-b]pyridin-3-yl)pyridin-2(1H)-one]
0.5 to 100 nM	Fc1cc2ncn(-c3ccc4c(c3)OCO4)c2cc1-c1ccncc1 [Compound 2, 1-(benzo[d][1,3]dioxol-5-yl)-5-fluoro-6-(pyridin-4-yl)-1H-benzo[d]imidazole]
0.5 to 100 nM	Cc1nc2ccc(-c3ccnc(N)c3)nc2n1-c1ccc(N2CCOCC2)cc1 [Compound 148, 4-(2-methyl-3-(4-morpholinophenyl)-3H-imidazo[4,5-b]pyridin-5-yl)pyridin-2-amine]

— patent US12054483B2, “Small molecule inhibitors of DYRK/CLK and uses thereof” (Arizona Board of Regents on Behalf of the University of …, priority 2018, dated 2024)
